Test results published in patent publication US20250144056A1, “ANTIMICROBIAL HOST DEFENSE PEPTIDE-INDUCING COMPOSITIONS AND METHODS OF PRODUCTION AND USE THEREOF” (Board of Regents for the Oklahoma Agricultural and …, priority 2022, published 2025).
“Also recorded” adds a separate entry of the source. Each block holds one molecule with its values, some of them ahead of it.

How the values were obtained:
Format in all cases: cell-based, chicken
AvBD9 mRNA expression = test: RT-qPCR of AvBD9 mRNA expression in HTC macrophage cells; conditions: for induction of AvBD9 gene expression / increase in AvBD9 expression, combination with mocetinostat: 24 h (FIG. 7, Panel D); for increase in AvBD9 expression, combination with mocetinostat: 5 μM compound in combination with 2.5 μM mocetinostat; for synergy with butyrate in AvBD9 mRNA expression: indicated concentrations in combination with 2 mM butyrate, 24 h (FIG. 4); for synergy in AvBD9 induction between HMTi and HDACi: with butyrate or mocetinostat, 24 h (FIG. 7, Panel C)
Procedure: (§1) Culture and stimulation of macrophages. Two different chicken macrophage cell lines, HTC (24) and HD11 (25), were kindly provided by Dr. Narayan C. Rath and Dr. Hyun Lillehoj of USDA-ARS and maintained in RPMI 1640 containing 10% heat-inactivated FBS, 100 U/ml penicillin, and 100 μg/ml streptomycin and subcultured every 3-4 days. After overnight seeding at 1.5×10^6 cells/well in 6-well cell culture plates, cells were treated with different concentrations of each compound for 24 h or with the indicated concentration of each compound for various lengths of time for dose-response and time-course experiments, respectively. To study the synergy between HMTi/DNMTi and HDACi, different concentrations of an HMTi or DNMTi were added to the cells in the presence or absence of an HDACi for 24 h, followed by RNA isolation and HDP gene expression analysis as described below. HTC cells were also stimulated with butyrate, BIX01294, or their combination for 24 h, followed by 3-h stimulation with 10 ng/ml LPS and subsequent expression analysis.
(§2) Total RNA extraction and gene expression analysis. Total RNA was extracted using RNAzol (Molecular Biology Research Center, Cincinnati, OH) according to the manufacturer's protocol. Gene expression was performed using reverse transcription-quantitative PCR (RT-qPCR) as previously described (27-29). Reverse transcription was performed with 300 ng of total RNA and Maxima® First Strand cDNA Synthesis Kit (ThermoFisher Scientific, Pittsburgh, PA). The cDNA was then diluted 10-fold with RNase-free water prior to real-time PCR using QuantiTect SYBR® Green PCR Kit (Qiagen, Valencia, CA) in 10-μl reactions using primers specific for HDP, barrier function, and inflammatory cytokine genes as described (27, 29, 30). PCR was run in CFX Connect Real-Time PCR System (Bio-Rad, Hercules, CA) using the following program: 95° C. for 10 min, followed by 40 cycles of 94° C. for 15 sec, 55° C. for 20 sec, and 72° C. for 30 sec. The specificity of PCR reactions was confirmed by the melting curve analysis. The glyceraldehyde-3-phosphate dehydrogenase (GAPDH) gene was used as the reference for data normalization. The fold changes in gene expression in the cells treated with individual compounds or in combinations were calculated relative to the cells treated with an equal volume of RPMI 1640 or DMSO using the ΔΔCt method (31).

AvBD9 gene promoter = test: HTC/AvBD9-luc luciferase reporter assay; conditions: for activation of the AvBD9 gene promoter (relative luciferase activity): compound alone, different concentrations, 24 h (FIG. 2, Panel A); for synergy in luciferase activity with butyrate: different concentrations in combination with 2 mM butyrate, 24 h (FIG. 3)
Procedure: Culture and stimulation of a stable HTC/AvBD9-luc luciferase reporter cell line. A stable HTC/AvBD9-luc cell line was generated by cloning a 2.0-Kb AvBD9 gene promoter fragment into a lentiviral luciferase reporter vector, pGreenFire1-mCMV-Puro (System Biosciences, Palo Alto, CA) and then transfected into HTC cells as previously described (22). The stable cell line was maintained in RPMI 1640 containing 10% heat-inactivated FBS, 100 U/ml penicillin, 100 μg/mL streptomycin, and 0.5 μg/mL puromycin and subcultured every 3-4 days. To measure transcriptional activation of the AvBD9 gene promoter in response to different epigenetic compounds, cells were seeded at 4×10^4 cells/well in white 96-well tissue culture plates and stimulated in duplicate with different compounds individually or in combination for 24 h. An equal amount of a solvent was applied as a negative control. Luciferase activity was measured using STEADY-GLO® Luciferase Assay System (Promega, Madison, WI) on an L-Max II luminescence microplate reader (Molecular Devices, Sunnyvale, CA). Cell viabilities were assessed by adding alamarBlue Reagent (ThermoFisher, Waltham, MA) to cell culture 4 h before luciferase assay. Relative luciferase activity was determined for each well after normalization to the cell viability as previously described (22).

AvBD1 = test: RT-qPCR of AvBD1 in HD11 macrophages; conditions: HD11 cells, 5 μM compound with 2 mM butyrate, 24 h (FIG. 6, Panel B)
Procedure: (§3) Culture and stimulation of macrophages. Two different chicken macrophage cell lines, HTC (24) and HD11 (25), were kindly provided by Dr. Narayan C. Rath and Dr. Hyun Lillehoj of USDA-ARS and maintained in RPMI 1640 containing 10% heat-inactivated FBS, 100 U/ml penicillin, and 100 μg/ml streptomycin and subcultured every 3-4 days. After overnight seeding at 1.5×10^6 cells/well in 6-well cell culture plates, cells were treated with different concentrations of each compound for 24 h or with the indicated concentration of each compound for various lengths of time for dose-response and time-course experiments, respectively. […]
(§4) Total RNA extraction and gene expression analysis. […] Gene expression was performed using reverse transcription-quantitative PCR (RT-qPCR) as previously described (27-29). […] The cDNA was then diluted 10-fold with RNase-free water prior to real-time PCR using QuantiTect SYBR® Green PCR Kit (Qiagen, Valencia, CA) in 10-μl reactions using primers specific for HDP, barrier function, and inflammatory cytokine genes as described (27, 29, 30). […] The fold changes in gene expression in the cells treated with individual compounds or in combinations were calculated relative to the cells treated with an equal volume of RPMI 1640 or DMSO using the ΔΔCt method (31).

AvBD9 = test: RT-qPCR of AvBD9 in HD11 macrophages; conditions: HD11 cells, 5 μM compound with 2 mM butyrate, 24 h (FIG. 6, Panel A)
Procedure: as §3, §4

CLDN1 = test: RT-qPCR of CLDN1 (claudin 1) in HTC cells; conditions: 24 h (FIG. 8, Panel F)
Procedure: as §1, §2

AvBD4 = test: RT-qPCR of AvBD4 in HD11 macrophages; conditions: HD11 cells, 5 μM compound with 2 mM butyrate, 24 h (FIG. 6, Panel C)
Procedure: as §3, §4

AvBD10 = test: RT-qPCR of AvBD10 in HD11 macrophages; conditions: HD11 cells, 5 μM compound with 2 mM butyrate, 24 h (FIG. 6, Panel D)
Procedure: as §3, §4

IL-8 = test: RT-qPCR of IL-8 in HTC cells with or without LPS
Procedure: as §1, §2

IL-1β = test: RT-qPCR of IL-1β in HTC cells with or without LPS
Procedure: as §1, §2

SMILES: Nc1ncn([C@@H]2O[C@H](CO)[C@@H](O)[C@H]2O)c(=O)n1 [AZA, 5-azacytidine]
induction of AvBD9 gene expression (AvBD9 mRNA expression; 5 μM compound alone): 3 fold
increase in AvBD9 expression, combination with mocetinostat (AvBD9 mRNA expression): 1,925 fold

activation of the AvBD9 gene promoter (relative luciferase activity) (AvBD9 gene promoter): concentration-dependent activation
SMILES: CCCc1cc(C)[nH]c(=O)c1CNC(=O)c1cc(-c2ccc(N3CCN(C(C)C)CC3)nc2)cc2c1cnn2C(C)C [UNC1999]
synergy in luciferase activity with butyrate (AvBD9 gene promoter): marked dose-dependent increase in the synergy
AvBD1 induction, combination with butyrate (AvBD1): synergistically induced, albeit at lower magnitudes
additional increase in AvBD9 expression of the butyrate combination over compound alone (AvBD9 mRNA expression; 20 μM compound + 2 mM butyrate versus 20 μM compound alone): 14 fold
increase in AvBD9 mRNA expression (AvBD9 mRNA expression; 20 μM compound alone, 24 h (FIG. 2, Panel B), peak): 259 fold
induction of AvBD9 expression (AvBD9 mRNA expression; 20 μM compound alone, 24 h (FIG. 4, Panels A, B)): 324 fold
increase in AvBD9 expression, combination with butyrate (AvBD9 mRNA expression; 20 μM compound in combination with 2 mM butyrate, 24 h (FIG. 4, Panels A, B)): 4,470 fold
synergy with butyrate in AvBD9 mRNA expression (AvBD9 mRNA expression): concentration-dependent increase
synergy in AvBD9 induction between HMTi and HDACi (AvBD9 mRNA expression): marked synergy
synergy in AvBD9 induction with butyrate (AvBD9): drastic synergy
CLDN1 induction, combination with mocetinostat (CLDN1; 5 μM UNC1999 + 2.5 μM mocetinostat): synergistically induced
CLDN1 induction, combination with butyrate (CLDN1; 5 μM UNC1999 + 2 mM butyrate): synergistically induced
AvBD4 induction, combination with butyrate (AvBD4): synergistically induced, albeit at lower magnitudes
AvBD10 induction, combination with butyrate (AvBD10): synergistically induced, albeit at lower magnitudes

SMILES: COc1cc2c(cc1OCCCN1CCCC1)N=C(N)C21CCC1 [A-366]
synergy in AvBD9 induction between HMTi and HDACi (AvBD9 mRNA expression): marked synergy

SMILES: Nc1ccccc1NC(=O)c1ccc(CNc2nccc(-c3cccnc3)n2)cc1 [mocetinostat]
induction of AvBD9 gene expression (AvBD9 mRNA expression; 2.5 μM mocetinostat alone): 152 fold

SMILES: CCCC(=O)[O-].[Na+] [butyrate, Sodium butyrate]
induction of AvBD9 expression (AvBD9 mRNA expression; 2 mM butyrate alone, 24 h (FIG. 4, Panel A)): 27 fold
effect on LPS-induced IL-8 expression (IL-8; compound alone 24 h, then 10 ng/ml LPS 3 h (FIG. 8, Panel E)): potentiated
activity in inducing gene expression of IL-8 (IL-8; compound alone (2 mM butyrate or 5 μM BIX01294), without LPS (FIG. 8, Panel E)): no or weak activity
effect on LPS-induced IL-1β expression (IL-1β; compound alone 24 h, then 10 ng/ml LPS 3 h (FIG. 8, Panel D)): suppressed
activity in inducing gene expression of IL-1β (IL-1β; compound alone (2 mM butyrate or 5 μM BIX01294), without LPS (FIG. 8, Panel D)): no or weak activity

activation of the AvBD9 gene promoter (relative luciferase activity) (AvBD9 gene promoter): weak activator
SMILES: Cc1cc(Nc2ccc(NC(=O)c3ccc(Nc4ccnc5ccccc45)cc3)cc2)nc(N)n1 [SGI-1027]
synergy in luciferase activity with butyrate (AvBD9 gene promoter): no synergy
induction of AvBD9 gene expression (AvBD9 mRNA expression; 5 μM compound alone): 4 fold
increase in AvBD9 expression, combination with mocetinostat (AvBD9 mRNA expression): 747 fold
additional increase in AvBD9 of the butyrate combination over compound alone (AvBD9 mRNA expression; 10 µM compound + 2 mM butyrate versus 10 µM compound alone): 8 fold
induction of AvBD9 mRNA expression (AvBD9 mRNA expression; 10 μM compound alone, 24 h (FIG. 2, Panel B)): 51 fold
AvBD9 expression augmented (AvBD9 mRNA expression; 10 µM compound alone, 24 h (FIG. 4, Panel C)): 51 fold
AvBD9 induction when combined with butyrate (AvBD9 mRNA expression; 10 µM compound combined with 2 mM butyrate, 24 h (FIG. 4, Panel C)): 411 fold
synergy with butyrate in AvBD9 mRNA expression (AvBD9 mRNA expression): concentration-dependent increase; also recorded: synergize
